Consider 17 compounds from BindingDB's records for doi:10.1021/acs.jnatprod.8b00507 (Chinese Academy of Sciences, 2019).

The data set can be described thus: Inhibition of P-gp in doxorubicin-resistant human MCF7/ADR cells assessed as reversal of doxorubicin resistance by measuring doxorubicin IC50 incubated for 48 hrs by MTT assay (Rvb = doxorubicin alone = 64.8 +/- 2.1 uM).

As a reminder, the IC50 is the midpoint of a concentration-inhibition curve.

As for `C=C1[C@H](OC(C)=O)[C@H]2[C@@H](OC(=O)c3ccccc3)[C@](C)(O)C[C@]2(O)C(=O)[C@@H](C)/C=C/C(C)(C)C(=O)[C@H](OC(=O)C(C)C)[C@H]1OC(C)=O`, the IC50 was 5 µM. For `C=C1[C@H](OC(=O)c2ccccc2)[C@@H](OC(C)=O)[C@@H](OC(C)=O)C(C)(C)/C=C/[C@H](C)C(=O)[C@@]2(OC(C)=O)C[C@H](C)[C@H](OC(=O)c3ccccc3)[C@@H]2[C@H]1OC(C)=O`, the half-inhibitory concentration (IC50) amounted to 9.9 µM. On to `C=C1[C@H](O)[C@H]2[C@@H](OC(=O)c3ccccc3)[C@](C)(OC(C)=O)C[C@]2(O)[C@H](OC(C)=O)[C@@H](C)/C=C/C(C)(C)C(=O)[C@H](OC(C)=O)[C@H]1OC(C)=O`, for which the IC50 was determined as 20.6 µM. With `C=C1[C@H](OC(=O)c2ccccc2)[C@H]2[C@@H](OC(C)=O)[C@@H](C)C[C@]2(OC(C)=O)C(=O)[C@@H](C)/C=C/C(C)(C)C(=O)[C@H](OC(=O)c2ccccc2)[C@H]1OC(C)=O`, the IC50 stood at 7.3 µM. In the case of `C=C1[C@H](OC(C)=O)CC(=O)C(C)(C)/C=C/[C@H](C)C(=O)[C@@]2(OC(C)=O)C[C@H](C)[C@H](OC(=O)c3ccccc3)[C@@H]2[C@H]1OC(C)=O`, the half-inhibitory concentration (IC50) turned out to be 13.1 µM. Take `C=C1[C@H](OC(C)=O)[C@H]2[C@@H](OC(=O)c3ccccc3)[C@@H](C)C[C@]2(OC(C)=O)C(=O)[C@@H](C)/C=C/C(C)(C)C(=O)[C@H](O)[C@H]1OC(=O)c1ccccc1`: the IC50 stood at 9.5 µM. Take `C=C1[C@H](OC(C)=O)[C@H]2[C@@H](OC(=O)c3ccccc3)[C@](C)(OC(C)=O)C[C@]2(O)C(=O)[C@@H](C)/C=C/C(C)(C)C(=O)[C@H](OC(C)=O)[C@H]1OC(=O)C(C)C`: the concentration for half-maximal inhibition (IC50) turned out to be 12.9 µM.

Turning to `C=C1[C@H](OC(C)=O)[C@H]2[C@@H](OC(=O)c3ccccc3)[C@](C)(OC(C)=O)C[C@]2(O)C(=O)[C@@H](C)/C=C/C(C)(C)C(=O)[C@H](OC(=O)C(C)C)[C@H]1OC(C)=O`, the IC50 turned out to be 5.3 µM.

For the compound `C=C1[C@H](OC(C)=O)CC(=O)C(C)(C)/C=C/[C@H](C)C(=O)[C@@]2(OC(C)=O)C[C@H](C)[C@H](OC(C)=O)[C@@H]2[C@H]1OC(=O)c1ccccc1`, the IC50 is 14.2 µM.

For the compound `C=C1[C@H](OC(C)=O)[C@H]2[C@@H](OC(=O)c3ccccc3)[C@@H](C)C[C@]2(OC(C)=O)C(=O)[C@@H](C)/C=C/C(C)(C)C(=O)[C@H](OC(C)=O)[C@H]1OC(C)=O`, the half-maximal inhibitory concentration (IC50) was determined as 9.6 µM. `C=C1[C@H](OC(C)=O)[C@H]2[C@@H](OC(=O)CC(C)=O)[C@@H](C)C[C@]2(O)C(=O)[C@@H](C)/C=C/C(C)(C)C(=O)[C@H](OC(C)=O)[C@H]1OC(=O)c1ccccc1`: the IC50 amounted to 10.3 µM. On to `C=C1[C@H](OC(C)=O)[C@H]2[C@@H](OC(=O)c3ccccc3)[C@@H](C)C[C@]2(OC(C)=O)C(=O)[C@@H](C)/C=C/C(C)(C)C(=O)[C@H](OC(C)=O)[C@H]1OC(=O)c1ccccc1`, for which the 50% inhibitory concentration (IC50) amounted to 8 µM. Turning to `C=C1[C@H](O)[C@H]2[C@@H](OC(=O)c3ccccc3)[C@](C)(O)C[C@]2(O)[C@H](OC(C)=O)[C@@H](C)/C=C/C(C)(C)C(=O)[C@H](OC(C)=O)[C@H]1OC(=O)c1ccccc1`, the concentration for half-maximal inhibition (IC50) was determined as 28 µM. As for `C=C1[C@H](OC(C)=O)[C@H]2[C@@H](OC(=O)c3ccccc3)[C@](C)(O)C[C@]2(O)C(=O)[C@@H](C)/C=C/C(C)(C)C(=O)[C@H](OC(C)=O)[C@H]1OC(=O)c1ccccc1`, the IC50 came out at 7.8 µM. Under `C=C1[C@H](OC(C)=O)[C@H]2[C@@H](OC(=O)c3ccccc3)[C@@H](C)C[C@]2(OC(C)=O)C(=O)[C@@H](C)/C=C/C(C)(C)C(=O)[C@H](O)[C@H]1OC(C)=O` stands 13.3 µM. For `C=C1[C@H](OC(C)=O)[C@H]2[C@@H](OC(=O)c3ccccc3)[C@@H](C)C[C@]2(O)C(=O)[C@@H](C)/C=C/C(C)(C)C(=O)[C@H](O)[C@H]1OC(C)=O`, the IC50 turned out to be 25.3 µM. Take `C=C1[C@H](OC(=O)c2ccccc2)[C@H]2[C@@H](OC(C)=O)[C@@H](C)C[C@]2(OC(C)=O)C(=O)[C@@H](C)/C=C/C(C)(C)C(=O)[C@H](O)[C@H]1OC(C)=O`: the IC50 came out at 21.6 µM.
